From patent EP2647379A1, “Combined use of a steroid sulfatase inhibitor for the treatment of endometriosis” (PregLem S.A., priority 2012, dated 2013)
Read-outs that look alike come from different tables or passages of the source.

Legend:
STS activity = test system: STS activity
Source text: The above effect is confirmed on functional biomarkers of STS activity for at least 84 days. As described before, STS converts sulphate precursors of estrogens. Thus, by inhibiting STS activity a reduction in serum levels of estrone and DHEA and an increase in estrone sulphate and DHEA sulphate are expected. This effect is described by baseline corrected fold-changes of the E1-S to E1 and DHEA-S to DHEA ratios over time (study days).

[1] = Follow-up effect on post-treatment menstruation cycles (ovarian and transvaginal ultrasound)
Source text: Menstruation cycle length was not influenced by the treatment. […] Sizes of right and left ovary differed slightly for each subject, but no clinically relevant changes were identified by the gynaecologists.

STS [2] = target: T1, STS (Homo sapiens, UniProt P08842); conditions: cited from earlier work
T1 sequence (P08842 22-583): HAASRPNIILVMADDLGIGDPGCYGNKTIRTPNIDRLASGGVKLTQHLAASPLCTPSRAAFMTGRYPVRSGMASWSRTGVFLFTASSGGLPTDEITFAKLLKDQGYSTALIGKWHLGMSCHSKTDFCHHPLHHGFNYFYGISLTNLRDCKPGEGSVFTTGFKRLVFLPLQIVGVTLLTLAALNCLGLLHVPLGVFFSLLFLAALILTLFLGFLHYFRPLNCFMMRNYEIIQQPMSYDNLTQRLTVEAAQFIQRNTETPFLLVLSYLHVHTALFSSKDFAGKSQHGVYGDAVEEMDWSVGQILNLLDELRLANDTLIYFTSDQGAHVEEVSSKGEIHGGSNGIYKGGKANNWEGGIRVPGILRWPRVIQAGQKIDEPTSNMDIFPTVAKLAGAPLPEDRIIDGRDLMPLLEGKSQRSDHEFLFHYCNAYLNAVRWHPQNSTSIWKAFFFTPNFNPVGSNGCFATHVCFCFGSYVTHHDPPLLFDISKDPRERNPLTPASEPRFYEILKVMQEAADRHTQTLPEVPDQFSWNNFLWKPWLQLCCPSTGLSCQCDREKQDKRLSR

[3] = multiple doses of 4 mg E2MATE, 10 mg NETA, for 4 weeks
[4] = Serum hormonal profile (E2, P4, T, D4A) by ELISA; format: in vivo, healthy pre-menopausal women; conditions: for mean concentration-time profiles for D4A / mean concentration-time profiles for T: after multiple dose administration; for E2 concentrations / P4 concentrations: mean concentration-time profile, suppression during the first cycle up to Day 29, normal increase on Day 43
Experimental: (§1) Blood samples were collected from each subject in order to determine pharmacodynamic parameters (sulfatase activity and hormonal profile).
(§2) STS activity was determined by spiking specimens with labelled EI-S and by measuring its conversion to E1 per gram protein under standardized incubation conditions using LC-MS/MS. Protein concentration was evaluated with a validated colorimetric assay (Bradford method). The serum samples for hormonal profile were analysed by specific and validated ELISA methods.

STS [5] = target: STS (Mus musculus, UniProt P50427); conditions: mice, cited from earlier work
STS [6] = target: T1, STS; assay: in vivo
Experimental: (§3) Blood samples were collected from each subject in order to determine pharmacodynamic parameters (sulfatase activity and hormonal profile). Ovarian and endometrium transvaginal ultrasounds throughout the study and an endometrial biopsy were performed.
(§4) The biopsy was scheduled between 5 to 8 days before the anticipated onset of the next menstrual cycle after treatment and 1 month after treatment cessation.
(§5) STS activity was determined by spiking specimens with labelled EI-S and by measuring its conversion to E1 per gram protein under standardized incubation conditions using LC-MS/MS. Protein concentration was evaluated with a validated colorimetric assay (Bradford method).

STS [7] = target: T1, STS; conditions: for AVG [%]: Average inhibition of Steroid Sulfatase in endometrium, Mean (SD), N = 8
Experimental: as §3, §4, §5

STS [8] = target: T1, STS; conditions: cited from earlier work; remark: listed apart in the source
STS [9] = target: T1, STS; assay: STS activity in PBMCs (Phase I study, labelled E1-S conversion to E1, LC-MS/MS)
Experimental: as §1, §2

STS [10] = target: T1, STS; conditions: in vivo
Experimental: as §1, §2

[11] = maximum during the NETA treatment period (values of days 8 to 29)
[12] = daily oral 0.5 or 1 mg/kg for 21 days, end of the treatment

Sequence of STS (Mus musculus, UniProt P50427) (P50427 23-624): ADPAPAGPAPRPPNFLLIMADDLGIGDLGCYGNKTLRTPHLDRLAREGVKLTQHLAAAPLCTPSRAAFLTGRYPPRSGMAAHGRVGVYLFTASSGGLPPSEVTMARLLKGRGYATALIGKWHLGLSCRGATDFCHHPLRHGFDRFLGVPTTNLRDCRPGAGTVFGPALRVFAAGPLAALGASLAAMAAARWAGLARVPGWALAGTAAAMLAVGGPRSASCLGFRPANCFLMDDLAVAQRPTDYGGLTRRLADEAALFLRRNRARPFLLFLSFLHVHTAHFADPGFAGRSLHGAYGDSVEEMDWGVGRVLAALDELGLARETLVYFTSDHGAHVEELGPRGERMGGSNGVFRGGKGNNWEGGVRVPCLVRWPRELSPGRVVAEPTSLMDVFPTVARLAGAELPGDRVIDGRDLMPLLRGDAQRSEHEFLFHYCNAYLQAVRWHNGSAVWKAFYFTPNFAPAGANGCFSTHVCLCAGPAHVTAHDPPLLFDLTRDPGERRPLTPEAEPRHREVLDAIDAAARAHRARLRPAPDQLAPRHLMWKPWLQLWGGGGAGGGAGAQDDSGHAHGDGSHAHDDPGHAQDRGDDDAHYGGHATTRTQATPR

C[C@]12CC[C@@H]3c4ccc(OS(N)(=O)=O)cc4CC[C@H]3[C@@H]1CC[C@@H]2O [E2MATE, Estradiol-3-o-sulfamate]
Baseline relative change of the DHEA-S / DHEA [%] (STS activity; Day 1): 0% | Baseline relative change of the E1-S / E1 [%] (STS activity; Day 1): 0% | Baseline relative change of the DHEA-S / DHEA [%] (STS activity; Day 8): 133% | Baseline relative change of the E1-S / E1 [%] (STS activity; Day 8): 208% | Baseline relative change of the DHEA-S / DHEA [%] (STS activity; Day 15): 116% | Baseline relative change of the E1-S / E1 [%] (STS activity; Day 15): 282% | Baseline relative change of the DHEA-S / DHEA [%] (STS activity; Day 22): 113% | Baseline relative change of the E1-S / E1 [%] (STS activity; Day 22): 218% | Baseline relative change of the DHEA-S / DHEA [%] (STS activity; Day 29): 148% | Baseline relative change of the E1-S / E1 [%] (STS activity; Day 29): 194% | Baseline relative change of the DHEA-S / DHEA [%] (STS activity; Day 57): 195% | Baseline relative change of the E1-S / E1 [%] (STS activity; Day 57): 218% | Baseline relative change of the DHEA-S / DHEA [%] (STS activity; Day 85): 232% | Baseline relative change of the E1-S / E1 [%] (STS activity; Day 85): 243% | Baseline relative change of the DHEA-S / DHEA [%] (STS activity; Day 113): 175% | Baseline relative change of the E1-S / E1 [%] (STS activity; Day 113): 400% | DHEA-S to DHEA ratios increased (STS activity; [11]): up to 265% | baseline relative mean increases of the E1-S to E1 ratio (STS activity; [11]): up to 282% | effect on ovarian size [1]: no apparent effect | STS inhibitor activity (STS [2]): active STS inhibitors | tolerability [3]: well tolerated | mean concentration-time profiles for D4A [4]: No relevant differences | mean concentration-time profiles for T [4]: No relevant differences | E2 concentrations [4]: Normal mean concentration-time profiles | P4 concentrations [4]: Normal mean concentration-time profiles | lesion weight and size (STS [5]; [12]): decreased | number of lesions (STS [5]; [12]): without a reduction | STS activity inhibition in the uterus or in induced lesions (STS [5]; daily oral dose, highest dose (1 mg/kg) for 21 days): ≤ 36% | Emax (STS [6]; read-out: Emax (maximal observed effect)): 91% | inhibition at 4 mg (STS [6]; read-out: STS inhibition in endometrium): 91% | AVG [%] (STS [7]): 66.6 (2.7) % | AVG (average effect over time (AUC)) (STS [7]; STS inhibition in endometrium samples): 66.60% | After treatment (STS [7]; STS inhibition in endometrium samples, second row of Table 2): 87.50%

NS(=O)(=O)Oc1ccc2c3c(c(=O)oc2c1)CCCCC3
blocking STS activity in both eutopic and ectopic tissues (STS [8]): effective

C[C@]12CC[C@@H]3c4ccc(OS(N)(=O)=O)cc4CC[C@H]3[C@@H]1CCC2=O [EMATE, Estrone-3-o-sulfamate]
STS inhibitor activity (STS [2]): active STS inhibitors

C#C[C@]1(OC(C)=O)CC[C@H]2[C@@H]3CCC4=CC(=O)CC[C@@H]4[C@H]3CC[C@@]21C [NETA, norethindrone acetate, reference compound]
effect on ovarian size [1]: no apparent effect | mean concentration-time profiles for D4A [4]: No relevant differences | mean concentration-time profiles for T [4]: No relevant differences | E2 concentrations [4]: suppressed | P4 concentrations [4]: suppressed | Emax (STS [6]): 46.7% | AVG [%] (STS [7]): 14.9 (27.0) % | average inhibition (STS [9]): 4% | inhibition (STS [10]): 12%
